Assay results taken from US20140213557A1, “Active Compound Combinations” (Bayer CropScience AG, priority 2005, published 2014).
Values joined by “and” are separate entries in the source; they are usually repeats but may differ in a detail not shown here. Equal entries are not always repeated.

Tested on: Phakopsora pachyrhizi
Experiment: Phakopsora test (soya bean)
Format: in vivo
Conditions: sprayed 1 day before inoculation, evaluation 11 days after inoculation
Protocol: The suitable active compound preparations used are commercial formulations which, if required, are diluted to the desired concentration prior to application.
Soya bean plants (cv. Miyagishirome) are cultivated in a plastic vessel having a diameter of 7.5 cm for 14 days, until they have reached the ⅔-leaf stage. The active compound preparations were, at the concentrations stated below, sprayed onto the test plants (6 ml for in each case 3 test vessels, the test solution contains 0.02% of Neoesterin as tackifier).
1 day after the application of the active compound preparation, the plants were sprayed with a urediniospore suspension (1×10^5 urediniospores/ml) of the rust pathogen Phakopsora pachyrhizi. The plants are then placed in a greenhouse at about 25° C. during the day and about 18° C. at night and a relative atmospheric humidity of 91.9%.
Evaluation is carried out 11 days after the inoculation by comparison of the infected areas of untreated and treated plants. 0% means an efficacy which corresponds to that of the control, whereas an efficacy of 100% means that no infection is observed.

Compound: O=C(O)CNCP(=O)(O)O [(1-1) glyphosate, glyphosate]
- Efficacy in % found (application rate 0.5 ppm): 0%
- Efficacy in % found (application rate 5 ppm): 0%

Compound: CP(=O)(O)CCC(N)C(=O)O (centres unmarked) [(1-2) glufosinate, glufosinate]
- Efficacy in % found (application rate 0.5 ppm): 0%
- Efficacy in % found (application rate 5 ppm): 0%

Compound: CC(C)(C)C(O)(CCc1ccc(Cl)cc1)Cn1cncn1 (centres unmarked) [(3-17) tebuconazole, tebuconazole]
- Efficacy in % found (application rate 0.5 ppm): 60% and 50%
